Measurements published in ChEMBL document CHEMBL4765266, “Design, synthesis and structure-activity relationships of 4-phenyl-1H-1,2,3-triazole phenylalanine derivatives as novel HIV-1 capsid inhibitors with promising antiviral activities” (Eur J Med Chem, 2020).
pEC50, pIC50, pKd: −log10 of the molar value. Activity calls are given as the source filed them. The rule behind the calls is not given here.

How the values were obtained:
[1] = tested on: Human immunodeficiency virus 1; assay: Antiviral activity against HIV1 NL4-3 infected in human TZM-bl cells assessed as reduction in virus induced cytopathic effect measured after 2 days by luciferase gene expression assay; type: functional, organism-based; conditions: Human immunodeficiency virus 1, NL4-3, TZM-bl, 48 h
TZM = assay: Cytotoxicity against in human TZM-bl cells assessed as reduction in cell viability measured after 2 days by CytoTox-Glo cytotoxicity assay; conditions: 48 h
[2] = Binding affinity to HIV1 NL4-3 capsid protein hexamer assessed as dissociation constant by SPR analysis; parameters: species or system Human immunodeficiency virus 1
[3] = human, microsomes, 1 h
in vitro [4] = conditions: human, TZM-bl cells
Description: Selectivity index, ratio of CC50 for human TZM-bl cells to EC50 for HIV1 NL4-3 infected in human TZM-bl cells

[5] = tested on: Human immunodeficiency virus 1; assay: Antiviral activity against HIV1 NL4-3 Env-deficient pseudotype virus infected in human U87/CD4/CCR5 cells assessed by reduction in viral production in early stage measured after 48 hrs by luciferase activity based single-round infection assay; type: functional, organism-based; conditions: Human immunodeficiency virus 1, NL4-3, U87/CD4/CCR5, 48 h
[6] = Metabolic stability in human plasma assessed as parent compound remaining after 10 mins by LC/MS/MS method; type: ADME, cell-free
[7] = tested on: Human immunodeficiency virus 1; assay: Antiviral activity against HIV1 NL4-3 Env-deficient pseudotype virus infected in human U87/CD4/CCR5 cells assessed by reduction in viral production in late stage measured after 48 hrs by luciferase activity based single-round infection assay; type: functional, organism-based; conditions: Human immunodeficiency virus 1, NL4-3, U87/CD4/CCR5, 48 h
[8] = tested on: Human immunodeficiency virus 1; assay: Antiviral activity against HIV1 NL4-3 Env-pseudotype virus in human U87/CD4/CCR5 cells assessed as reduction in p24 production at 10 uM by ELISA reader relative to control; type: functional
in vitro [9] = conditions: human, liver microsomes
Description: Metabolic stability in human liver microsomes assessed as parent compound remaining in presence of NADPH after 1 hr by LC/MS/MS method

[10] = Metabolic stability in human plasma assessed as parent compound remaining after 120 mins by LC/MS/MS method; type: ADME, cell-free; conditions: 2 h
[11] = human, microsomes, 1 h; remark: listed apart in the source
[12] = Metabolic stability in human plasma assessed as parent compound remaining after 30 mins by LC/MS/MS method; type: ADME, cell-free; conditions: 0.5 h
[13] = Metabolic stability in human plasma assessed as parent compound remaining after 60 mins by LC/MS/MS method; type: ADME, cell-free; conditions: 1 h
[14] = human, microsomes, 1 h; remark: listed apart in the source
Description: Metabolic stability in human liver microsomes assessed as parent compound remaining in absence of NADPH after 1 hr by LC/MS/MS method

U87/CD4/CCR5 [15] = assay: Effect on HIV1 NL4-3 capsid protein assembly at 50 uM measured every 1 min for 19 mins by Spectrophotometer method; conditions: Human immunodeficiency virus 1
[16] = Binding affinity to HIV1 NL4-3 capsid protein monomer assessed as dissociation constant by SPR analysis; parameters: species or system Human immunodeficiency virus 1
U87/CD4/CCR5 [17] = assay: Induction of HIV1 NL4-3 capsid protein assembly at 50 uM measured every 1 min for 19 mins by Spectrophotometer method; conditions: Human immunodeficiency virus 1

COc1ccc(C(=O)Nc2ccc(-c3cn(CC(=O)N[C@@H](Cc4ccccc4)C(=O)N(C)c4ccc(OC)cc4)nn3)cc2)cc1
pEC50 [1]: < 4.79 | CC50 (TZM): > 16.2 µM

COc1ccc(N(C)C(=O)[C@H](Cc2ccccc2)NC(=O)Cn2cc(-c3ccccc3NC(=O)c3ccccc3F)nn2)cc1
pKd [2]: 5.22 | t1/2 [3]: 0.9 min | selectivity ratio (in vitro [4]): > 5.27 | pIC50 [5]: 5.09 | Stabilty [6]: 91.3% | pIC50 [7]: 6.49 | inhibition at 10 µM ([8]; Human immunodeficiency virus 1, NL4-3, U87/CD4/CCR5): 15% | remaining at 1 h (in vitro [9]): 0.3% | Stabilty [10]: 107.4% | CLH [11]: 1559.4 µL/min/mg | Stabilty [12]: 94.6% | Stabilty [13]: 86.9% | Stabilty [14]: 122.1% | pEC50 [1]: 5.50 | CC50 (TZM): > 16.5 µM | Activity (U87/CD4/CCR5 [15]): inactive | pKd [16]: 5.10

COc1ccc(N(C)C(=O)[C@H](Cc2ccccc2)NC(=O)Cn2cc(-c3ccccc3NC(=O)c3cccc(OC)c3)nn2)cc1
selectivity ratio (in vitro [4]): > 1.27 | pEC50 [1]: 4.89 | CC50 (TZM): > 16.2 µM

COc1ccc(N(C)C(=O)[C@H](Cc2ccccc2)NC(=O)Cn2cc(-c3cccc(NC(=O)c4ccc(C)cc4)c3)nn2)cc1
pEC50 [1]: < 4.78 | CC50 (TZM): > 16.6 µM

COc1ccc(N(C)C(=O)[C@H](Cc2ccccc2)NC(=O)Cn2cc(-c3ccccc3N)nn2)cc1
selectivity ratio (in vitro [4]): > 5.27 | pEC50 [1]: 5.41 | CC50 (TZM): > 20.6 µM

COc1ccc(N(C)C(=O)[C@H](Cc2ccccc2)NC(=O)Cn2cc(-c3ccc(NC(=O)c4ccc(C#N)cc4)cc3)nn2)cc1
selectivity ratio (in vitro [4]): > 1.32 | pEC50 [1]: 4.91 | CC50 (TZM): > 16.3 µM

COc1ccc(N(C)C(=O)[C@H](Cc2ccccc2)NC(=O)Cn2cc(-c3ccccc3NC(=O)c3ccc(C#N)cc3)nn2)cc1
pEC50 [1]: < 4.79 | CC50 (TZM): > 16.3 µM

COc1ccc(N(C)C(=O)[C@H](Cc2ccccc2)NC(=O)Cn2cc(-c3ccc(NC(=O)c4ccc(C)cc4)cc3)nn2)cc1
pEC50 [1]: < 4.78 | CC50 (TZM): > 16.6 µM

COC(=O)c1ccc(C(=O)Nc2ccc(-c3cn(CC(=O)N[C@@H](Cc4ccccc4)C(=O)N(C)c4ccc(OC)cc4)nn3)cc2)cc1
pEC50 [1]: < 4.81 | CC50 (TZM): > 15.5 µM

COc1ccc(N(C)C(=O)[C@H](Cc2ccccc2)NC(=O)Cn2cc(-c3cccc(NC(=O)c4ccccc4)c3)nn2)cc1
selectivity ratio (in vitro [4]): > 1.33 | pEC50 [1]: 4.89 | CC50 (TZM): > 17 µM

COc1ccc(N(C)C(=O)[C@H](Cc2ccccc2)NC(=O)Cn2cc(-c3ccc(NC(=O)c4ccccc4F)cc3)nn2)cc1
selectivity ratio (in vitro [4]): > 1.39 | pEC50 [1]: 4.93 | CC50 (TZM): > 16.5 µM

COc1ccc(N(C)C(=O)[C@H](Cc2ccccc2)NC(=O)Cn2cc(-c3ccccc3NC(=O)c3ccc(F)cc3)nn2)cc1
selectivity ratio (in vitro [4]): > 4.76 | pEC50 [1]: 5.46 | CC50 (TZM): > 16.5 µM

COC(=O)c1ccc(C(=O)Nc2cccc(-c3cn(CC(=O)N[C@@H](Cc4ccccc4)C(=O)N(C)c4ccc(OC)cc4)nn3)c2)cc1
pEC50 [1]: < 4.81 | CC50 (TZM): > 15.5 µM

COc1ccc(N(C)C(=O)[C@H](Cc2ccccc2)NC(=O)Cn2cc(-c3ccc(NC(=O)c4ccccc4OC)cc3)nn2)cc1
pEC50 [1]: < 4.79 | CC50 (TZM): > 16.2 µM

COc1ccc(N(C)C(=O)[C@H](Cc2ccccc2)NC(=O)Cn2cc(-c3cccc(N)c3)nn2)cc1
pKd [2]: 5.40 | selectivity ratio (in vitro [4]): > 6.25 | pEC50 [1]: 5.48 | CC50 (TZM): > 20.6 µM | pKd [16]: 4.80

COC(=O)c1ccc(C(=O)Nc2ccccc2-c2cn(CC(=O)N[C@@H](Cc3ccccc3)C(=O)N(C)c3ccc(OC)cc3)nn2)cc1
pEC50 [1]: < 4.81 | CC50 (TZM): > 15.5 µM

COc1ccc(N(C)C(=O)[C@H](Cc2ccccc2)NC(=O)Cn2cc(-c3ccc(NC(=O)c4cccc(OC)c4)cc3)nn2)cc1
pEC50 [1]: < 4.79 | CC50 (TZM): > 16.2 µM

CC(C)[N+](C)(CCOC(=O)C1c2ccccc2Oc2ccccc21)C(C)C.[Br-] [PROPANTHELINE BROMIDE]
Stabilty [6]: 47.7% | Stabilty [12]: 9.1% | Stabilty [13]: 0.6%

COc1ccc(N(C)C(=O)[C@H](Cc2ccccc2)NC(=O)Cn2cc(-c3ccc(NC(=O)c4cccc(F)c4)cc3)nn2)cc1
selectivity ratio (in vitro [4]): > 1.3 | pEC50 [1]: 4.90 | CC50 (TZM): > 16.5 µM

Cc1[nH]c2ccccc2c1CC(=O)N[C@@H](Cc1ccccc1)C(=O)N(C)c1ccccc1
pIC50 [5]: 7.25 | Activity (U87/CD4/CCR5 [17]): Active | Stabilty [6]: 87.3% | pIC50 [7]: 6.64 | inhibition [8]: Active | Stabilty [10]: 85.6% | CLH [11]: 2403 µL/min/mg | Stabilty [12]: 83.4% | Stabilty [13]: 86.5% | pEC50 [1]: 6.55 | CC50 (TZM): > 23.5 µM | pKd [16]: 5.62

COc1ccc(N(C)C(=O)[C@H](Cc2ccccc2)NC(=O)Cn2cc(-c3cccc(NC(=O)c4ccccc4F)c3)nn2)cc1
selectivity ratio (in vitro [4]): > 1.22 | pEC50 [1]: 4.87 | CC50 (TZM): > 16.5 µM

COc1ccc(N(C)C(=O)[C@H](Cc2ccccc2)NC(=O)Cn2cc(-c3ccc(N)cc3)nn2)cc1
selectivity ratio (in vitro [4]): > 1.51 | pEC50 [1]: 4.87 | CC50 (TZM): > 20.6 µM

COc1ccc(N(C)C(=O)[C@H](Cc2ccccc2)NC(=O)Cn2cc(-c3ccccc3NC(=O)c3cccc(F)c3)nn2)cc1
pKd [2]: 5.30 | selectivity ratio (in vitro [4]): > 4.99 | pEC50 [1]: 5.48 | CC50 (TZM): > 16.5 µM | pKd [16]: 5.17

COc1ccc(N(C)C(=O)[C@H](Cc2ccccc2)NC(=O)Cn2cc(-c3cccc(NC(=O)c4cccc(F)c4)c3)nn2)cc1
selectivity ratio (in vitro [4]): > 1.72 | pEC50 [1]: 5.02 | CC50 (TZM): > 16.5 µM

COc1ccc(N(C)C(=O)[C@H](Cc2ccccc2)NC(=O)Cn2cc(-c3cccc(NC(=O)c4ccc(C#N)cc4)c3)nn2)cc1
selectivity ratio (in vitro [4]): > 1.27 | pEC50 [1]: 4.89 | CC50 (TZM): > 16.3 µM

COc1ccc(C(=O)Nc2ccccc2-c2cn(CC(=O)N[C@@H](Cc3ccccc3)C(=O)N(C)c3ccc(OC)cc3)nn2)cc1
pEC50 [1]: < 4.79 | CC50 (TZM): > 16.2 µM

COc1ccc(C(=O)Nc2cccc(-c3cn(CC(=O)N[C@@H](Cc4ccccc4)C(=O)N(C)c4ccc(OC)cc4)nn3)c2)cc1
pEC50 [1]: < 4.79 | CC50 (TZM): > 16.2 µM

COc1ccc(N(C)C(=O)[C@H](Cc2ccccc2)NC(=O)Cn2cc(-c3cccc(NC(=O)c4ccccc4OC)c3)nn2)cc1
pEC50 [1]: < 4.79 | CC50 (TZM): > 16.2 µM

COc1ccc(N(C)C(=O)[C@H](Cc2ccccc2)NC(=O)Cn2cc(-c3ccccc3NC(=O)c3ccccc3)nn2)cc1
selectivity ratio (in vitro [4]): > 4.54 | pEC50 [1]: 5.43 | CC50 (TZM): > 17 µM

COc1ccc(N(C)C(=O)[C@H](Cc2ccccc2)NC(=O)Cn2cc(-c3ccc(NC(=O)c4ccccc4)cc3)nn2)cc1
selectivity ratio (in vitro [4]): > 1.32 | pEC50 [1]: 4.89 | CC50 (TZM): > 17 µM

C[C@]12CC[C@H]3[C@@H](CCC4=CC(=O)CC[C@@]43C)[C@@H]1CC[C@@H]2O [TESTOSTERONE]
t1/2 [3]: 7.4 min | CLH [11]: 188.3 µL/min/mg

COc1ccc(N(C)C(=O)[C@H](Cc2ccccc2)NC(=O)Cn2cc(-c3ccccc3NC(=O)c3ccccc3OC)nn2)cc1
selectivity ratio (in vitro [4]): > 1.92 | pEC50 [1]: 5.08 | CC50 (TZM): > 16.2 µM

COc1ccc(N(C)C(=O)[C@H](Cc2ccccc2)NC(=O)Cn2cc(-c3cccc(NC(C)=O)c3)nn2)cc1
selectivity ratio (in vitro [4]): > 1.28 | pEC50 [1]: 4.83 | CC50 (TZM): > 19 µM

COc1ccc(N(C)C(=O)[C@H](Cc2ccccc2)NC(=O)Cn2cc(-c3ccc(NC(C)=O)cc3)nn2)cc1
pEC50 [1]: < 4.72 | CC50 (TZM): > 19 µM

COc1ccc(N(C)C(=O)[C@H](Cc2ccccc2)NC(=O)Cn2cc(-c3ccccc3NC(=O)c3ccc(C)cc3)nn2)cc1
pEC50 [1]: < 4.78 | CC50 (TZM): > 16.6 µM

COc1ccc(N(C)C(=O)[C@H](Cc2ccccc2)NC(=O)Cn2cc(-c3cccc(NC(=O)c4ccc(F)cc4)c3)nn2)cc1
pEC50 [1]: < 4.78 | CC50 (TZM): > 16.5 µM

COc1ccc(N(C)C(=O)[C@H](Cc2ccccc2)NC(=O)Cn2cc(-c3cccc(NC(=O)c4cccc(OC)c4)c3)nn2)cc1
pEC50 [1]: < 4.79 | CC50 (TZM): > 16.2 µM

COc1ccc(N(C)C(=O)[C@H](Cc2ccccc2)NC(=O)Cn2cc(-c3ccc(NC(=O)c4ccc(F)cc4)cc3)nn2)cc1
selectivity ratio (in vitro [4]): > 1.27 | pEC50 [1]: 4.89 | CC50 (TZM): > 16.5 µM

COc1ccc(N(C)C(=O)[C@H](Cc2ccccc2)NC(=O)Cn2cc(-c3ccccc3NC(=O)c3ccc(-c4ccccc4)cc3)nn2)cc1
pEC50 [1]: < 4.82 | CC50 (TZM): > 15 µM

COc1ccc(N(C)C(=O)[C@H](Cc2ccccc2)NC(=O)Cn2cc(-c3cccc(NC(=O)c4ccc(-c5ccccc5)cc4)c3)nn2)cc1
pEC50 [1]: < 4.82 | CC50 (TZM): > 15 µM

COc1ccc(N(C)C(=O)[C@H](Cc2ccccc2)NC(=O)Cn2cc(-c3ccc(NC(=O)c4ccc(-c5ccccc5)cc4)cc3)nn2)cc1
selectivity ratio (in vitro [4]): > 1.23 | pEC50 [1]: 4.91 | CC50 (TZM): > 15 µM

COc1ccc(N(C)C(=O)[C@H](Cc2ccccc2)NC(=O)Cn2cc(-c3ccccc3NC(C)=O)nn2)cc1
selectivity ratio (in vitro [4]): > 4.76 | pEC50 [1]: 5.40 | CC50 (TZM): > 19 µM
